US20240059710A1, “KRAS G12D Inhibitors” (Jacobio Pharmaceuticals Co., Ltd., priority 2020, published 2024)

How the values were obtained:
AsPC-1 = experiment: Cell growth inhibition assay (AsPC-1); assay type: cell-based; details: Homo sapiens, ASPC1, 144 h; AsPC-1, 6 days incubation, CellTiter-Glo
Description: (§1) 4. Cell Growth Inhibition Assay
AsPC-1 cultured in RPMI-1640 medium (Gibco) containing 10% fetal bovine serum (Gibco). Cells in culture medium were plated in 96-well plates at a concentration of 1000 cells/well ([…]) and allowed to attach overnight.
(§2) The next day, compounds were diluted in culture medium and added to the plates. After 6 days incubation in a 37° C./5% CO2 cell incubator, the cell viability was detected by CellTiter-Glo® Luminescent Cell Viability Assay kit (Promega). Luminescent signals were read on Tecan Spark multimode microplate reader and analyzed using a 4-parameter logistic model to calculate IC50 values.

[1] = molecular target: T1, GDP-loaded HIS-KRAS (G12D, aa 1-169) (Homo sapiens, UniProt P01116, G12D); experiment: SOS1 catalyzed nucleotide exchange assay; assay type: biochemical; details: SOS1 ExD, TR-FRET, 4 hours at 25° C.
T1 construct: GDP-loaded HIS-KRAS (G12D, aa 1-169)
T1 sequence (P01116 1-169 isoform P01116-2 G12D): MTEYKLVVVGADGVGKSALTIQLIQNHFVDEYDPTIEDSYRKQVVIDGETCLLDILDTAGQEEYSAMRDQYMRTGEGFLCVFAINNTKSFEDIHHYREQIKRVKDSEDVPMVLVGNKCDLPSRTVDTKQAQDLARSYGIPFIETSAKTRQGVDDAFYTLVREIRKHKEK
Description: 1. SOS1 Catalyzed Nucleotide Exchange Assay
GDP-loaded HIS-KRAS (G12D, aa 1-169) was pre-incubated with a compound in the presence of 10 nM GDP in a 384-well plate (Greiner) for 15 min, then purified SOS1 ExD (Flag tag, aa 564-1049), BODIPY™ FL GTP (Invitrogen) and MAb (monoclonal antibody) Anti 6HIS-Tb cryptate Gold (Cisbio) were added to the assay wells (Final concentration: 1.5 nM GDP-loaded HIS-KRAS (G12D), 5 nM GDP, 0.5 μM SOS1 ExD, 80 nM BODIPY™ FL GTP, 52.5 ng/mL MAb Anti 6HIS-Tb cryptate Gold) and incubated for 4 hours at 25° C. Wells containing same percent of DMSO served as vehicle control, and wells without KRAS served as low control. TR-FRET signals were read on Tecan Spark multimode microplate reader. The parameters were F486: Excitation 340 nm, Emission 486 nm, Lag time 100 μs, Integration time 200 μs; F515: Excitation 340 nm, Emission 515 nm, Lag time 100 μs, Integration time 200 μs. TR-FRET ratios for each individual wells were calculated by equation: TR-FRET ratio=(Signal F515/Signal F486)*10000. The percent of activation of compounds treated wells were normalized between vehicle control and low control (% Activation=(TR-FRET ratioCompound treated−TR-FRET ratioLow control)/(TR-FRET ratioVehicle control−TR-FRET ratioLow control)*100%). Then the data were analyzed either by fitting a 4-parameter logistic model or by Excel to calculate IC50 values.

[2] = system: AGS cells expressing KRAS G12D; experiment: Phospho-ERK1/2(THR202/TYR204) HTRF assay; assay type: cell-based; details: Homo sapiens, 2 hours incubation, read-out: AGS p-ERK IC50
Description: AGS cells expressing KRAS G12D were cultured in F12K medium (Gibco) containing 10% fetal bovine serum (Gibco). The AGS cells in culture medium were seeded in 96-well plates at a concentration of 40,000 cells/well and then put in a 37° C./5% CO2 cell incubator to incubate overnight. The next day, culture medium was removed and the compound diluted in assay medium (F12K, 0.1% FBS) was added in each well. After 2 hours incubation in a 37° C./5% CO2 cell incubator, the assay medium in 96-well plates was removed, then 50 μL of 1× blocking reagent-supplemented lysis buffer (Cisbio) was added and the plates were incubated at 25° C. for 45 min with shaking. 10 μL of cell lysates from the 96-well plates were transferred to a 384-well plate (Greiner) containing 2.5 μL/well HTRF® pre-mixed antibodies (Cisbio 64AERPEH). Incubate 4 hours at 25° C. and then read HTRF signals on Tecan Spark multimode microplate reader. The data were analyzed using a 4-parameter logistic model to calculate IC50 values.

AGS = experiment: Cell growth inhibition assay (AGS); assay type: cell-based; details: Homo sapiens, 144 h, 6 days incubation, CellTiter-Glo
Description: as §1
AGS cultured in F12K medium (Gibco) containing 10% fetal bovine serum (Gibco). Cells in culture medium were plated in 96-well plates at a concentration of 500 cells/well ([…]) and allowed to attach overnight.
as §2

[3] = molecular target: T2, GppNp-loaded HIS-KRAS (G12D, aa 1-169) / cRAF RBD (Homo sapiens, UniProt P01116, G12D); experiment: GTP-KRAS and cRAF interaction assay; assay type: binding; details: HTRF, 2 hours at 25° C.
T2 construct: GppNp-loaded HIS-KRAS (G12D, aa 1-169)
T2 sequence (P01116 1-169 isoform P01116-2 G12D): as above
Description: 2. GTP-KRAS and cRAF Interaction Assay
GppNp-loaded HIS-KRAS (G12D, aa 1-169) was pre-incubated with a compound in the presence of 200 µM GTP in a 384-well plate (Greiner) for 15 min, then cRAF RBD (GST tag, aa 50-132, CreativeBioMart), MAb Anti GST-d2 (Cisbio) and MAb Anti 6HIS-Tb cryptate Gold (Cisbio) were added to the assay wells (Final concentration: 2.0 nM GppNp-loaded HIS-KRAS (G12D), 100 μM GTP, 35 nM cRAF RBD, 1 μg/mL MAb Anti GST-d2, 52.5 ng/mL MAb Anti 6HIS-Tb cryptate Gold) and incubated for 2 hours at 25° C. Wells containing same percent of DMSO served as vehicle control, and wells without KRAS served as low control. HTRF signals were read on Tecan Spark multimode microplate reader and HTRF ratios were calculated under manufacturer's instructions. The percent of activation of compounds treated wells were normalized between vehicle control and low control (% Activation=(HTRF ratioCompound treated−HTRF ratioLow control)/(HTRF ratioVehicle control−HTRF ratioLow control)*100). Then the data were analyzed either by fitting a 4-parameter logistic model or by Excel to calculate IC50 values.

Structure (SMILES): C#Cc1cccc2cc(O)cc(-c3c(F)cc4c(N5CC6CCC(C5)N6)nc(OCC5(CN6CCS(=O)(=O)CC6)CC5)nc4c3F)c12 [Compound 83]
- IC50 (AsPC-1): 5.09 µM
- IC50 [1]: 0.018 µM
- IC50 [2]: 0.131 µM
- IC50 (AGS): 0.273 µM
- IC50 [3]: 3.15 µM

Structure (SMILES): C#Cc1cccc2cc(O)cc(-c3ccc4c(N5CC6CCC(C5)N6)nc(OCC5(CN(C)CCO)CC5)nc4c3F)c12 [Compound 86]
- IC50 (AsPC-1): 0.528 µM
- IC50 [1]: 0.0209 µM
- IC50 [2]: 0.0074 µM
- IC50 (AGS): 0.0603 µM
- IC50 [3]: 0.097 µM

Structure (SMILES): Oc1cc(-c2ccc3c(N4CC5CCC(C4)N5)nc(OCC4(CN5CCOCC5)CC4)nc3c2F)c2c(Cl)cccc2c1 [Compound 88]
- IC50 (AsPC-1): 0.153 µM
- IC50 [1]: 0.0167 µM
- IC50 [2]: 0.0357 µM
- IC50 (AGS): 0.017 µM
- IC50 [3]: 0.148 µM

Structure (SMILES): C#Cc1cccc2cc(O)cc(-c3c(F)cc4c(N5CC6CCC(C5)N6)nc(OCC5(CN6CC[S+]([O-])CC6)CC5)nc4c3F)c12 [Compound 89]
- IC50 (AsPC-1): 0.0966 µM
- IC50 [1]: 0.0205 µM
- IC50 [2]: > 1 µM
- IC50 (AGS): 0.0149 µM
- IC50 [3]: 1.94 µM

Structure (SMILES): Oc1cc(-c2c(Cl)cc3c(N4CC5CCC(C4)N5)nc(OCC45CCCN4C[C@H](F)C5)nc3c2F)c2c(Cl)cccc2c1 (stereo partly drawn) [Compound 90]
- IC50 (AsPC-1): 0.1 µM
- IC50 [1]: 0.00535 µM
- IC50 [2]: 0.0124 µM
- IC50 (AGS): 0.0146 µM
- IC50 [3]: 0.0848 µM

Structure (SMILES): CCc1cccc2cc(O)cc(-c3ccc4c(N5CC6CCC(C5)N6)nc(OC[C@@]56CCCN5C[C@H](F)C6)nc4c3F)c12 [Compound 91]
- IC50 (AsPC-1): 0.0316 µM
- IC50 [1]: 0.00482 µM
- IC50 [2]: 0.00854 µM
- IC50 (AGS): 0.0123 µM
- IC50 [3]: 0.102 µM

Structure (SMILES): C#Cc1c(OC)ccc2cc(O)cc(-c3ccc4c(N5CC6CCC(C5)N6)nc(OCC5(CN6CCOCC6)CC5)nc4c3F)c12 [Compound 94]
- IC50 (AsPC-1): 1.15 µM
- IC50 [1]: 0.00534 µM
- IC50 [2]: 0.0285 µM
- IC50 (AGS): 0.333 µM
- IC50 [3]: 2.52 µM

Structure (SMILES): N#Cc1c(N)sc2c(F)ccc(-c3ccc4c(N5CC6CCC(C5)N6)nc(OCC5(CN6CCOCC6)CC5)nc4c3F)c12 [Compound 95]
- IC50 (AsPC-1): 0.572 µM
- IC50 [1]: 0.00328 µM
- IC50 [2]: > 0.2 µM
- IC50 (AGS): 0.0527 µM
- IC50 [3]: 0.388 µM

Structure (SMILES): C#Cc1cccc2cc(O)cc(-c3ccc4c(N5CC6CCC(C5)N6)nc(OC[C@@]56CCCN5C[C@H](F)C6)nc4c3)c12 [Compound 96]
- IC50 (AsPC-1): 0.394 µM
- IC50 [1]: 0.0295 µM
- IC50 [2]: 0.0342 µM
- IC50 (AGS): 0.205 µM
- IC50 [3]: 0.146 µM

Structure (SMILES): C#Cc1cccc2cc(O)cc(-c3cc4nc(OC[C@@]56CCCN5C[C@H](F)C6)nc(N5CC6CCC(C5)N6)c4cc3Cl)c12 [Compound 97]
- IC50 (AsPC-1): 0.127 µM
- IC50 [1]: 0.00764 µM
- IC50 [2]: 0.00522 µM
- IC50 (AGS): 0.0453 µM
- IC50 [3]: 0.0446 µM

Structure (SMILES): C#Cc1cccc2cc(O)cc(-c3c(C(F)(F)F)cc4c(N5CC6CCC(C5)N6)nc(OCC5(CN6CCOCC6)CC5)nc4c3F)c12 [Compound 98]
- IC50 (AsPC-1): 0.0697 µM
- IC50 [1]: 0.00129 µM
- IC50 [2]: 0.0137 µM
- IC50 (AGS): 0.018 µM
- IC50 [3]: 0.0201 µM

Structure (SMILES): C#Cc1c(F)ccc2cc(O)cc(-c3c(Cl)cc4c(C5CC6CCC(C5)N6)nc(OC[C@@]56CCCN5C[C@H](F)C6)nc4c3F)c12 (stereo partly drawn) [Compound 100]
- IC50 (AsPC-1): 0.033 µM
- IC50 [1]: 0.00593 µM
- IC50 [2]: 0.00171 µM
- IC50 (AGS): 0.00568 µM
- IC50 [3]: 0.055 µM
